# According to patent US20190160049A1, “2-OXO-1,2-DIHYDROPYRIDINE-3-CARBOXAMIDE COMPOUNDS AND THEIR USE AS DUAL INHIBITORS OF PDK1/AURA” (INTERNATIONAL SOCIETY FOR DRUG DEVELOPMENT S.R.L., priority 2016, published 2019):
# Legend:
# Assay type in all cases: cell-based
# [1] = system: cancer stem cell (CSC) neurospheres obtained from U87MG cells; test: CSC (GBM stem cell) proliferation, MTS assay; settings: seven days
# Method: FIG. 3 illustrates the effects of SA16 on CSC proliferation of example 3b. CSCs were treated in complete neurosphere medium with different concentrations of SA16 (1 nM-100 μM) for seven days. At the end of treatment, cell proliferation was measured using the MTS assay. The data are expressed as a percentage with respect to that of untreated cells (control), which was set to 100%, and are the mean values±SEM of three independent experiments, each performed in duplicate. IC50 value after seven days of treatment were calculated from sigmoid dose-response curve;
# FIG. 4 illustrates combined inhibition of PDK1 and Aurora A on CSCs proliferation of example 3b. CSCs were treated in complete medium with different concentrations of MP7, in the presence or absence of Alisertib, for seven days. At the end of treatment, cell proliferation was measured using the MTS assay.
# The data are expressed as a percentage with respect to that of untreated cells (control), which was set to 100%, and are the mean values±SEM of three independent experiments, each performed in duplicate. The significance of the differences was determined with a one-way ANOVA with Bonferroni post-test: * p<0.05, *** p<0.001 vs. control cells; ## p<0.01, ### p<0.001 vs. cells treated with MP7 alone; §§ p<0.01, § § § p<0.001 vs. cells treated with Alisertib alone;
# The inventors also examined the effects of SA16 compound on cancer stem cell (CSC) neurospheres obtained from U87MG cells.
# U87MG cells = test: U87MG cell proliferation, MTS assay; settings: 72 h
# Method: FIG. 1 illustrates the effects of SA16 on U87MG cell proliferation of example 3 (a). U87MG cells were treated in complete medium with different concentrations of SA16 (1 nM-100 μM) for 72 h. At the end of treatment, cell proliferation was measured using the MTS assay. The data are expressed as a percentage with respect to that of untreated cells (control), which was set to 100%, and are the mean values±SEM of three independent experiments, each performed in duplicate. The significance of the differences was determined with a one-way ANOVA with Bonferroni post-test: * p<0.05, ** p<0.01, *** p<0.001 vs. control cells;
# FIG. 2 illustrates the combined inhibition of PDK1 and Aurora A on U87MG cell proliferation of example 3a. U87MG cells were treated in complete medium with different concentrations of MP7, in the presence or absence of Alisertib, for 72 h. At the end of treatment, cell proliferation was measured using the MTS assay. The data are expressed as a percentage with respect to that of untreated cells (control), which was set to 100%, and are the mean values±SEM of three independent experiments, each performed in duplicate. The significance of the differences was determined with a one-way ANOVA with Bonferroni post-test: * p<0.05, *** p<0.001 vs. control cells; ## p<0.01, ### p<0.001 vs. cells treated with MP7 alone; §§ p<0.01, § § § p<0.001 vs. cells treated with Alisertib alone;
# To examine the effects of SA16 on U87MG cell growth/survival, U87MG cells were incubated with different concentrations of the compound SA16 (1 nM-10 μM) for 72 h.
# In parallel experiments, U87MG proliferation was assessed in the presence of a well-known PDK1 inhibitor MP7, alone or in combination with the Aurora A inhibitor, Alisertib.
# CSC neurospheres = test: Sphere-derived cell morphology (neurosphere area, outgrowth of cellular processes); settings: seven days; SA16 10 nM, 1 μM, 10 μM; 2.5 PIM MP7, 1.5 μM Alisertib
# Method: FIG. 5 illustrates the effects of SA16 on sphere-derived cell morphology of Example 3c. CSCs were treated for seven days with complete NSC medium containing DMSO (control), or SA16 (10 nM, 1 μM, 10 μM) (A) Representative cell micrographs of control and SA16 (10 μM) after seven days of treatment are shown. The area of the culture plates occupied by the spheres (B) and the length of cellular processes (C) were scored after seven days of treatment. The counts represent the mean values±SEM of two independent experiments. The significance of differences was determined with a one-way ANOVA with Bonferroni post-test: * p<0.05, ** p<0.01, *** p<0.001 vs. control cells.
# FIG. 7 illustrates the effects of MP7, Alisertib and of their combined treatment on sphere-derived cell morphology of example 3c. CSCs were treated for seven days with complete NSC medium containing DMSO (control), MP7 and/or alisertib (A) Representative cell micrographs after seven days of treatment are shown. The area of the culture plates occupied by the spheres (B) and the length of cellular processes (C) were scored after seven days of treatment. The counts represent the mean values±SEM of two independent experiments. The significance of differences was determined with a one-way ANOVA with Bonferroni post-test: * p<0.05, *** p<0.001 vs. control cells; ## p<0.01 vs. cells treated with MP7 alone; § p<0.05 vs. cells treated with Alisertib alone.
# The effects of SA16 on morphology of neurospheres were evaluated by quantifying the area occupied by the cells in culture plates, as well as the outgrowth of cellular processes.
# The inventors then evaluated the effects of MP7, Alisertib and of their combination on CSC differentiation. The cells were incubated with […] MP7, alone or in combination with 1.5 μM Alisertib for seven days.
smiles,measurement,setting,value
"O=C(N[C@@H](COc1ccc2[nH]c(=O)[nH]c2c1)c1ccccc1)c1cccn(Cc2ccc(F)c(F)c2)c1=O [MP7, 1-(3,4-difluorobenzyl)-2-oxo-N-{(1R)-2-[(2-oxo-2,3-dihydro-1H-benzimidazol-5-yl)oxy]-1-phenylethyl}-1,2-dihydropyridine-3-carboxamide]",effect on CSC proliferation (in words),[1],slight effects on U87MG proliferation
same,effect on U87MG cell proliferation (in words),U87MG cells,did not show a significant inhibition of cell proliferation
same,area occupied by the neurospheres,CSC neurospheres,reduction in the area occupied by the neurospheres
